Reference: patent US12258337B2, “Bicyclic CX3CR1 receptor agonists” (Board of Regents, The University of Texas System, priority 2019, dated 2025)

Assays:
Assay type in all cases: cell-based
[1] = target: T1, mCX3CR1 (Mus musculus, UniProt Q9Z0D9); assay: Ga16 assay, CX3CR1 agonism, Ca2+ sensitive photo-protein readout (FLIPRTETRA); settings: mouse CX3CR1 cell line
T1 construct: expressed in transfected cells; stably expresses a Ca2+ sensitive photo-protein
T1 sequence (Q9Z0D9 1-354): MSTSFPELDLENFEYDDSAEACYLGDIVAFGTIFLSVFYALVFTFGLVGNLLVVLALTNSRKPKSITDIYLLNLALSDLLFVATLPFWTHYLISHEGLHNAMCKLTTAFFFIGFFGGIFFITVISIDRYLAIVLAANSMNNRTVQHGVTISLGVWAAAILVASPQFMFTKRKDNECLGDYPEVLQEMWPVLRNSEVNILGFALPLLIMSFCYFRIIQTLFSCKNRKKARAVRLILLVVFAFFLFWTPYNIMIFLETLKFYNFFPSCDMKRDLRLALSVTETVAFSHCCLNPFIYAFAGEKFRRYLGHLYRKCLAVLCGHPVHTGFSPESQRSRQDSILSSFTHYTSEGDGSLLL
Protocol: (§1) Compounds (as well as stereoisomer(s) thereof and/or salt(s) thereof) were tested for CX3CR1 agonism in a cell based assay with fluorescent readout in Agonist Mode in dose response in quadruplicate with intra-plate modality).
(§2) Buffers and reagents. PBS (D-PBS without calcium and magnesium; EuroClone); Trypsin (Trypsin 0.05%, EDTA 0.02% in PBS; EuroClone); DMSO (Sigma); Standard tyrode buffer: in-house solution (130 mM NaCl, 5 mM KCl, 2 mM CaCl2), 1 mM MgCl2, 5 mM NaHCO3, 20 mM HEPES in water at pH 7.4; sterile filtered); Coelenterazine, native (Biosynth); stock 10 mM; Agonist: Recombinant Human Fractalkine (CX3CL1) (PeproTech); stock: 10 μM in standard tyrode buffer+BSA 0.1%; stored at −20° C.
(§3) Cell line. Human (hCX3CR1), mouse (mCX3CR1), and rat (rCX3CR1) were used for the assay.
(§4) Assay protocol. Experiments ere performed in 384 MTP format. Cells were seeded at 7,500 cells/well in 25 μl/well complete growth medium without selection antibiotics in 384-well plates. Twenty-four hours later, cells ere assayed for the response to various compounds using the Ca^2+ sensitive photo-protein stably expressed in the cells as readout.
(§5) The experiment was performed in a 384-well format according to the following procedure: • 24h after seeding, pre-incubate the cells at room temperature for 1 hour. • Then remove the culture medium. • Load cells with 20 μL/well of standard tyrode buffer+10 μM ceolenterazine. • Incubate cell plates for 3 hours at RT. • Inject 10 μL/w of 3× concentrated test compounds and controls in assay buffer at the FLIPRTETRA and monitor the kinetic response over a period of 90 seconds.
(§6) Data from FLIPRTETRA measurements were analyzed with the Genedata Screener© software. The following examples are meant to illustrate, but in no way to limit, the claimed invention.

[2] = target: T2, rCX3CR1 (Rattus norvegicus, UniProt P35411); assay: as above; settings: rat CX3CR1 cell line
T2 construct: expressed in transfected cells; stably expresses a Ca2+ sensitive photo-protein
T2 sequence (P35411 1-354): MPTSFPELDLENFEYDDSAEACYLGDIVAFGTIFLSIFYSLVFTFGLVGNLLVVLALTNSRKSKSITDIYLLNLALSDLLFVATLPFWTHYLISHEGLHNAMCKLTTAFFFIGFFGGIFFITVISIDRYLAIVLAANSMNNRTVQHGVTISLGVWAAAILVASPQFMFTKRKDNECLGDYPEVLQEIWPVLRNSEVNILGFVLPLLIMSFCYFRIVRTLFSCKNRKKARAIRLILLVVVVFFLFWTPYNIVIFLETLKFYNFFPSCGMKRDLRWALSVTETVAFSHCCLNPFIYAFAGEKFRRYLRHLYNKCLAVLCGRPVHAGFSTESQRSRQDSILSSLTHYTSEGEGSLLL
Protocol: as §1, §2, §3, §4, §5, §6

[3] = target: T3, hCX3CR1 (Homo sapiens, UniProt P49238); assay: as above; set-up: expressed in transfected cells; stably expresses a Ca2+ sensitive photo-protein; settings: human CX3CR1 cell line
T3 sequence (P49238 1-355): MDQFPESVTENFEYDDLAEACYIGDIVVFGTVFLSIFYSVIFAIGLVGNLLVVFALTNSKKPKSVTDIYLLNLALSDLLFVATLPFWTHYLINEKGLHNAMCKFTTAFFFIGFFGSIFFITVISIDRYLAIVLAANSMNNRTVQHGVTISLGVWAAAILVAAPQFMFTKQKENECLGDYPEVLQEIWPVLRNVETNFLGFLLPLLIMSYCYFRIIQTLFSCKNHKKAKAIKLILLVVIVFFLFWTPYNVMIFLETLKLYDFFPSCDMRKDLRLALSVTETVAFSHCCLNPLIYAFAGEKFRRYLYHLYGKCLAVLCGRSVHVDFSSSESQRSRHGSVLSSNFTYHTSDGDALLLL
Protocol: as §1, §2, §3, §4, §5, §6

[4] = target: T3, hCX3CR1; assay: Suchi5 assay (HEK/NatClytin/CNG/Suchi5 transiently transfected hCX3CR1, Fluo-8 Ca2+ readout); set-up: expressed in transfected cells; stably expresses a Ca2+ sensitive photo-protein; settings: Suchi5 assay, HEK/NatClytin/CNG/Suchi5 transfected with hCX3CR1; read-out: hCX3CR1 agonism EC50
Protocol: Buffers and reagents. PBS (D-PBS without calcium and magnesium; EuroClone); Trypsin (Trypsin 0.05%, EDTA 0.02% in PBS; EuroClone); Opti-MEM medium (Thermo Fisher); DMSO (Sigma); Standard tyrode buffer: in-house solution (130 mM NaCl, 5 mM KCl, 2 mM CaCl2), 1 mM MgCl2, 5 mM NaHCO3, 20 mM HEPES in water at pH 7.4; sterile filtered); Screen Quest™ Fluo-8 No Wash Calcium Assay Kit (AAt Bioquest®); Lipofectamine® 2000 Reagent (Thermo Fisher); Agonist: Recombinant Human Fractalkine (CX3CL1) (PeproTech); stock: 10 μM in standard Tyrode buffer/BSA 01%; stored at −20° C.
Cell line. The final cell line for CX3CR1-Suchi5 assay is HEK/NatClytin/CNG/Suchi5 transiently transfected hCX3CR1 cDNA. In this cell line native Gαi signaling is switched to Gαq pathway thanks to the overexpression of a Gαiq chimeric G protein (called Suchi5) to direct Gαi activation towards Ca^2+ release for measurement.
Assay protocol. Experiments are performed in 384 MTP format. Transiently transfected cells are seeded at 20,000 cells/well in 25 μl/well Opti-MEM medium without selection antibiotics in 384-well plates. 4-5-hours later 25 μL/well of complete medium with 20% of FBS are added to the cells. Twenty-four hours later, cells are assayed for the response to various compounds using a fluorescent Ca^2+ sensitive dye (FLUO8-No Wash Dye) as readout.
The experiment is performed in a 384-well format according to the following procedure: • 24h after seeding, remove the culture medium. • Load cells with 20 μL/well of 0.5X FLUO-8 No Wash Dye diluted in assay buffer. • Incubate cell plates for 1 hour at RT. • Inject 10 μL/w of 3× concentrated test compounds and controls in assay buffer at the FLIPRTETRA and monitor the kinetic response over a period of 90 seconds.
Data from FLIPRTETRA measurements are analyzed with the Genedata Screener© software.

In the case of `COC1CCCN(CC(C)(C)CNC(=O)c2cc3c(s2)CCCCCC3)C1` (centres unmarked) [Example 54, N-[3-(3-methoxypiperidin-1-yl)-2,2-dimethylpropyl]-4,5,6,7,8,9-hexahydrocycloocta[b]thiophene-2-carboxamide], the EC50 [1] is reported as over 100 µM, the EC50 [2] is reported as over 100 µM and the EC50 [3] is reported as 16.3 µM. The EC50 [4] was 17.4 µM.

With `CC(C)(CNC(=O)c1cc2c(s1)CCCCCC2)CN1CCCC(O)C1` (centres unmarked) [Example 46, N-[3-(3-hydroxypiperidin-1-yl)-2,2-dimethylpropyl]-4,5,6,7,8,9-hexahydrocycloocta[b]thiophene-2-carboxamide] the EC50 [1] was 52.8 µM, the EC50 [2] was 19.8 µM and the EC50 [3] was 10.9 µM. The EC50 [4] was 11.8 µM.

In the case of `CC(C)(CNC(=O)c1cc2c(s1)CCCCCC2)CN1CCC(C)(O)CC1` [Example 67, N-[3-(4-hydroxy-4-methylpiperidin-1-yl)-2,2-dimethylpropyl]-4,5,6,7,8,9-hexahydrocycloocta[b]thiophene-2-carboxamide], the EC50 [1] is reported as 87.1 µM, the EC50 [2] is reported as 78.9 µM and the EC50 [3] is reported as 18.3 µM. The EC50 [4] was 14.4 µM.

`COCCOC1CCN(CC(C)(C)CNC(=O)c2cc3c(s2)CCCCCC3)CC1` [Example 42, N-[3-[4-(2-methoxyethoxy)piperidin-1-yl]-2,2-dimethylpropyl]-4,5,6,7,8,9-hexahydrocycloocta[b]thiophene-2-carboxamide] gave an EC50 [1] of over 100 µM, an EC50 [2] of 81.4 µM and an EC50 [3] of 22.6 µM.

In the case of `CC(C)(CNC(=O)c1cc2c(s1)CCCCCC2)CN1CCC(O)C(C)(C)C1` (centres unmarked) [Example 68, N-[3-(4-hydroxy-3,3-dimethylpiperidin-1-yl)-2,2-dimethylpropyl]-4,5,6,7,8,9-hexahydrocycloocta[b]thiophene-2-carboxamide], the EC50 [1] is reported as over 100 µM, the EC50 [2] is reported as 63 µM and the EC50 [3] is reported as 19.7 µM. It also gave an EC50 [4] of 19.5 µM.

`CC1CCCC1(CNC(=O)c1cc2c(s1)CCCCCC2)CN1CCCC1` (centres unmarked) [Example 62, N-[[2-methyl-1-(pyrrolidin-1-ylmethyl)cyclopentyl]methyl]-4,5,6,7,8,9-hexahydrocycloocta[b]thiophene-2-carboxamide] gave an EC50 [1] of 99.4 µM, an EC50 [2] of 40.9 µM and an EC50 [3] of 20.8 µM. For the same compound, the EC50 [4] was 12.9 µM.

With `COC1(C)CCN(CC2(CNC(=O)c3cc4c(s3)CCCCCC4)CCC2)CC1` [Example 48, N-[[1-[(4-methoxy-4-methylpiperidin-1-yl)methyl]cyclobutyl]methyl]-4,5,6,7,8,9-hexahydrocycloocta[b]thiophene-2-carboxamide] the EC50 [1] was 18.2 µM, the EC50 [2] was 13.7 µM and the EC50 [3] was 18.5 µM. For the same compound, the EC50 [4] was 9.9 µM.

Work on `O=C(NCC1(CN2CCCC2)CC(F)(F)C1)c1cc2c(s1)CCCCCC2` [Example 57, N-[[3,3-difluoro-1-(pyrrolidin-1-ylmethyl)cyclobutyl]methyl]-4,5,6,7,8,9-hexahydrocycloocta[b]thiophene-2-carboxamide] yielded an EC50 [1] of 30.1 µM, an EC50 [2] of 20.3 µM and an EC50 [3] of 15.3 µM. For the same compound, the EC50 [4] was 15.6 µM.

Compound `COC1CCCN(CC2(CNC(=O)c3cc4c(s3)CCCCCC4)CCC2)C1` (centres unmarked) [Example 55, N-({1-[(3-Methoxypiperidin-1-yl)methyl]cyclobutyl}methyl)-4H,5H,6H,7H,8H,9H-cycloocta[b]thiophene-2-carboxamide] has an EC50 [1] of 8.1 µM, an EC50 [2] of 12.1 µM and an EC50 [3] of 13.7 µM. It also gave an EC50 [4] of 7.1 µM.

Work on `CN(C)CC1(CNC(=O)c2cc3c(s2)CCCCCC3)CCOC1` (centres unmarked) [Example 38, N-[[3-[(dimethylamino)methyl]oxolan-3-yl]methyl]-4,5,6,7,8,9-hexahydrocycloocta[b]thiophene-2-carboxamide] yielded an EC50 [1] of 15.8 µM, an EC50 [2] of 13.1 µM and an EC50 [3] of 10 µM.

`O=C(NCC1(CN2CCC2)CCOCC1)c1cc2c(s1)CCCCCC2` [Example 35, N-[[4-(azetidin-1-ylmethyl)oxan-4-yl]methyl]-4,5,6,7,8,9-hexahydrocycloocta[b]thiophene-2-carboxamide] showed an EC50 [1] of 18 µM, an EC50 [2] of 12.1 µM and an EC50 [3] of 12.8 µM.

`CN(C)CC1(CNC(=O)c2cc3c(s2)CCCCCC3)CCCOC1` (centres unmarked) [Example 37, N-[[3-[(dimethylamino)methyl]oxan-3-yl]methyl]-4,5,6,7,8,9-hexahydrocycloocta[b]thiophene-2-carboxamide] gave an EC50 [1] of 15 µM, an EC50 [2] of 11.5 µM and an EC50 [3] of 12.2 µM.

Compound `O=C(NCC1(CN2CCCC2)CCCOC1)c1cc2c(s1)CCCCCC2` (centres unmarked) [Example 44, N-[[3-(pyrrolidin-1-ylmethyl)oxan-3-yl]methyl]-4,5,6,7,8,9-hexahydrocycloocta[b]thiophene-2-carboxamide] has an EC50 [1] of 10.8 µM, an EC50 [2] of 8.4 µM and an EC50 [3] of 9.6 µM.

In the case of `O=C(NCC1(CN2CCC(O)CC2)CCOCC1)c1cc2c(s1)CCCCCC2` [Example 40, N-[[4-[(4-hydroxypiperidin-1-yl)methyl]oxan-4-yl]methyl]-4,5,6,7,8,9-hexahydrocycloocta[b]thiophene-2-carboxamide], the EC50 [1] is reported as 83.8 µM, the EC50 [2] is reported as 74.9 µM and the EC50 [3] is reported as 20.8 µM.

`O=C(NCC1(CN2CCC2)CCC1)c1cc2c(s1)CCCCCC2` [Example 36, N-[[1-(azetidin-1-ylmethyl)cyclobutyl]methyl]-4,5,6,7,8,9-hexahydrocycloocta[b]thiophene-2-carboxamide] gave an EC50 [1] of over 100 µM, an EC50 [2] of over 100 µM and an EC50 [3] of 9.1 µM.

`O=C(NCC1(CN2CCCC2)CCOC1)c1cc2c(s1)CCCCCC2` (centres unmarked) [Example 39, N-[[3-(pyrrolidin-1-ylmethyl)oxolan-3-yl]methyl]-4,5,6,7,8,9-hexahydrocycloocta[b]thiophene-2-carboxamide] was tested, and the EC50 [1] was 9.6 µM, the EC50 [2] was 10.9 µM and the EC50 [3] was 11.1 µM.
